The values below come from patent publication US20150283239A1, “GRAPHENE DERIVATIVE-BASED COMPOSITION FOR DRUG DELIVERY AND PREPARATION METHOD THEREOF” (Research & Business Foundation SUNGKYUNKWAN UNIVERSITY, priority 2014, published 2015).

One assay deals with HCT116 cells. Put plainly: In vitro cytotoxicity, MTT analysis. The assay is classed as cell-based, Human. The note with it: HCT116, 100 μg/mL, 24 hours. As for the experimental part: Human colon cancer cells (HCT116) were maintained in a Dulbecco's modified Eagle medium (DMEM), and supplemented with 10% fetal bovine serum (FBS) and antibiotics (10,000 μg/mL streptomycin and 10,000 unit/mL penicillin) at 37° C. in a humidified atmosphere containing 5% CO2(v/v).
In vitro cytotoxicity was measured by using standard colorimetric 3-(4,5-dimethylthiazol-2-yl)-2,5-diphenyl tetrazolium bromide (MTT) analysis. For the MTT analysis, HCT116 cells were seeded in a 96-well cell-culture plate at 1×10^4/well, and cultured for 12 hours at 37° C. under 5% CO2. Thereafter, the HCT116 cells were cultured for 24 hours by using various concentrations ([…], 12.5, 25, 50, and 100 μg/mL) of GO, DGO, GQD, Cur, GO-Cur, DGO-Cur, and GQD-Cur. Next, 20 μl stock MTT (5 mg/mL) was added to each of the cells, and the cells were cultured under 5% CO2 at 37° C. for 4 hours. After the culture for additional 4 hours, the resulting formazan crystals were dissolved in dimethyl sulfoxide (DMED, 100 μl), and absorbance intensity was measured by a microplate reader at 570 nm. All the experiments were conducted in quadruplicate, and the relative cell viability (%) was expressed as a percentage relative to untreated control cells.

A further assay has as its system HCT116 tumors. Put plainly: In vivo drug delivery, tumor volume in HCT116 xenograft mice. As to conditions: 14 days, intratumoral single dose 10 mg/kg. More on the design: species or system Balb/c female nude mice. As for the experimental part: Six (6) to seven (7)-week-old Balb/c female nude mice (weight of 21 g to 25 g) were purchased from Orient Bio Inc., (Seoul, Korea), and were maintained in a 12-hour light/12-hour darkness cycle (12:12LD) at a temperature of 22° C. to 24° C., in humidity of 40% to 60%, and with food and water ad libitum. HCT116 was trypsinized, washed twice with serum-free DMEM, and dispersed at a density of 1×10^7 cells/mL PBS. […] of the dispersed cells was subcutaneously injected into the right back region of the mice. After the tumor size reached about 150 mm^3, the mice were randomly divided into six (6) groups depending on differences in the minimum weight and tumor size. The mice were intratumorally injected with physiological saline, DGO, GQD, Cur, DGO-Cur, and GQD-Cur dispersions at a total dose of 10 mg/kg. The tumor size of each of the groups was measured by a caliper, and the tumor volume was calculated by using the following equation: tumor volume=ab^2×0.5236, where ‘a’ is the maximum diameter of tumor, and ‘b’ is the minimum diameter of tumor. Relative tumor volumes were calculated as V/V0 (V0 was the tumor volume when the treatment was initiated).
Experimental female nude mice bearing subcutaneous xenografts were divided into groups and intratumorally injected with a single dose of each of physiological saline, pure DGO and GQDs, free Cur, or DGO-Cur and GQD-Cur composites. […]

Take `COc1cc(/C=C/C(=O)CC(=O)/C=C/c2ccc(O)c(OC)c2)ccc1O` [Cur, Curcumin]: in the assay on HCT116 cells, the cancer cells dead entry was “about 70%”. Besides, in the assay on HCT116 tumors, the “inhibition of tumor proliferation” value is given as “tumor proliferation was initially inhibited to some extent”.
